Measurements taken from patent US20230357447A1, “TUMOR ACTIVATED MULTISPECIFIC ANTIBODIES FOR TARGETING CD28 AND PD-L1 AND METHODS OF USE THEREOF” (Janux Therapeutics, Inc., priority 2022, published 2023).

system: anti-CD28 scFv; assay: Phage binding ELISA (panning) of clonal phage on anti-CD28 scFv, with or without CD28 soluble protein; settings: Phage binding ELISA; captured anti-CD28 scFv pre-incubated with CD28 soluble protein
Method: Clonal phage were harvested as crude supernatants and screened via standard enzyme linked immunosorbent assays (ELISAs). […] Prior to the addition of clonal phage, wells were incubated with blocking buffer and CD28 soluble protein or blocking buffer alone. Without washing or aspirating, clonal phage supernatants were then added to the wells and incubated for a short time. Wells were then washed followed by detection of bound phage using a horse radish peroxidase conjugated anti-M13 antibody. Clonal phage of interest were then sent for sequence analysis.

| Substance | CD28 scFv signal in presence of CD28 |
| --- | --- |
| Phage-98 (MDWCPKYLWDVCFN) | 0.422 |
| Phage-112 (MHWCPRALWDVCYN) | 0.240 |

same assay, conditions: Phage binding ELISA; captured biotinylated anti-CD28 scFv, blocking buffer alone

| Substance | CD28 scFv signal |
| --- | --- |
| Phage-98 (MDWCPKYLWDVCFN) | 2.566 |
| Phage-112 (MHWCPRALWDVCYN) | 2.528 |

same assay, conditions: Phage binding ELISA; clonal phage supernatant, background wells

| Substance | Backgroud signal |
| --- | --- |
| Phage-136 (MHWCPIYLWDECFN) | 0.071 |
| Phage-150 (MDWCPRHLWNVCFS) | 0.058 |
| Phage-127 (MDWCPRALWNECFA) | 0.080 |
| Phage-145 (MDWCPKHLWIECFA) | 0.065 |
| Phage-134 (MDWCPSYLWHECFA) | 0.096 |
| Phage-137 (MDWCPRYLWHECFH) | 0.101 |
| Phage-128 (MDWCPRDLWIECFF) | 0.084 |
| Phage-158 (MDWCPRYLWTECFF) | 0.110 |
| Phage-139 (MDWCPRDLWDVCFA) | 0.096 |
| Phage-98 (MDWCPKYLWDVCFN) | 0.096 |
| Phage-143 (LDWCPLNLWDLCYF) | 0.062 |
| Phage-112 (MHWCPRALWDVCYN) | 0.077 |

same assay, conditions: clonal phage supernatant on captured anti-CD28 scFv pre-incubated with CD28 soluble protein

| Substance | Phage binding ELISA CD28 scFv signal in presence of CD28 |
| --- | --- |
| Phage-49 (MSWCPIHLWNECFN) | 0.284 |
| Phage-82 (MDWCPRDLWTECFA) | 0.151 |
| Phage-46 (MHWCPIDLWAECYA) | 0.225 |
| Phage-58 (MHWCPIDRWADCFN) | 0.077 |

same assay, conditions: clonal phage supernatant on captured biotinylated anti-CD28 scFv; blocking buffer alone

| Substance | Phage binding ELISA CD28 scFv signal |
| --- | --- |
| Phage-49 (MSWCPIHLWNECFN) | 2.057 |
| Phage-82 (MDWCPRDLWTECFA) | 2.634 |
| Phage-46 (MHWCPIDLWAECYA) | 2.278 |
| Phage-58 (MHWCPIDRWADCFN) | 0.287 |

same assay, conditions: clonal phage supernatant; background (no anti-CD28 scFv signal)

| Substance | Phage binding ELISA Backgroud signal |
| --- | --- |
| Phage-417 (IYWCPTAMWNRCSA) | 0.086 |
| Phage-410 (IDWCPRYMWHECFF) | 0.098 |
| Phage-383 (LAGCQRDLATVCVI) | 0.068 |
| Phage-420 (MFWCPSTMWNRCFD) | 0.063 |
| Phage-449 (MVDCPLISFDECLA) | 0.246 |
| Phage-415 (MDWCPMYMWHKCFH) | 0.099 |
| Phage-397 (MDWCPRAMWDYCFY) | 0.123 |
| Phage-428 (MNWCPSTMWNRCLT) | 0.067 |
| Phage-413 (MDWCPSDMWSNCFN) | 0.070 |
| Phage-444 (VNQCTRYRWAECLN) | 0.465 |
| Phage-405 (MDWCPMSMWAFCFD) | 0.102 |
| Phage-438 (MDWCPMSRWAFCFD) | 0.071 |
| Phage-430 (IHLCHWVPWIKCSH) | 2.516 |
| Phage-393 (MDWCPRDMWFECFN) | 0.069 |
| Phage-411 (MSWCPRFMWHECFN) | 0.081 |
| Phage-394 (MDWCPRYMWSDCFF) | 0.082 |

same assay, conditions: clonal phage supernatant; background signal

| Substance | Phage binding ELISA Backgroud signal |
| --- | --- |
| Phage-192 (DVWCPKYMWSLCFN) | 0.101 |
| Phage-40 (MDWCPIDMWDQCFN) | 0.061 |
| Phage-161 (MDWCPRHLWDQCFA) | 0.150 |
| Phage-51 (MDWCPMDLWDYCFN) | 0.071 |
| Phage-48 (IDWCPRYLWDECYN) | 0.061 |
| Phage-250 (MDWCPKVMWHYCFA) | 0.136 |
| Phage-165 (MDWCPFYLWDECFL) | 0.070 |
| Phage-373 (MDWCPRILWSDCFN) | 0.082 |
| Phage-254 (MDWCPRYLWSECFA) | 0.078 |
| Phage-375 (MNWCPRALWHECFL) | 0.085 |
| Phage-369 (MHWCPRDLWYECFA) | 0.072 |
| Phage-264 (MDWCPRHLWHVCFN) | 0.070 |
| Phage-83 (MDWCPRFLWDECFN) | 0.065 |
| Phage-281 (MDWCPRSLWFLCFN) | 1.110 |
| Phage-218 (TFGCPTTMWNRCFA) | 0.117 |
| Phage-49 (MSWCPIHLWNECFN) | 0.083 |
| Phage-354 (MDWCPRYLWLECFN) | 0.083 |
| Phage-349 (LDWCPRHLWALCFN) | 0.073 |
| Phage-348 (MAWCPWYLWDECFN) | 0.200 |
| Phage-196 (MDWCPRYMWYQCFS) | 0.079 |

| Substance | Phage binding ELISA Backgroud signal |
| --- | --- |
| Phage-256 (MDWCPFDLWHVCYN) | 0.089 |
| Phage-82 (MDWCPRDLWTECFA) | 0.060 |
| Phage-224 (MDWCPKDRWNDCYF) | 0.078 |
| Phage-46 (MHWCPIDLWAECYA) | 0.082 |
| Phage-314 (MDWCPIHLWNECFN) | 0.074 |
| Phage-58 (MHWCPIDRWADCFN) | 0.074 |
| Phage-210 (MDWCPRDMWFECFA) | 0.076 |
| Phage-248 (MDWCPRNMWHHCFD) | 0.205 |
| Phage-262 (MYWCATSMWNRCFV) | 0.248 |
| Phage-271 (MDWCPTSFWNRCFH) | 0.102 |
| Phage-229 (VPWCQIISGLECLT) | 0.076 |
| Phage-294 (MDWCPRSLWDYCFA) | 0.115 |
| Phage-303 (MDWCPRYLWTECFS) | 0.074 |
| Phage-282 (MDWCPRDLWFACFA) | 0.060 |
| Phage-212 (MDWCPRAMWDKCFF) | 0.073 |
| Phage-205 (MDWCPTDMWHHCFL) | 0.061 |
| Phage-70 (ITWCPSSMWNRCFI) | 0.065 |
| Phage-377 (MDWCPFDLWLECFN) | 0.087 |
| Phage-322 (MDWCPRHLWIECFN) | 0.339 |
| Phage-361 (MHWCPRHLWSECFN) | 0.165 |

| Substance | Phage binding ELISA Backgroud signal |
| --- | --- |
| Phage-311 (MDWCPRDLWYQCFN) | 0.069 |
| Phage-54 (MNWCPRDMWYQCFN) | 0.068 |
| Phage-187 (IGKLTLCLNADLVI) | 0.274 |
| Phage-318 (MDWCPMFLWDECFN) | 0.132 |
| Phage-300 (MDWCPRHLWFECFF) | 0.178 |
| Phage-335 (MDWCPRFLWDYCFA) | 0.146 |
| Phage-332 (IDWCPRALWDACLA) | 0.269 |
| Phage-253 (MVGCATSMWNRCLT) | 0.256 |
| Phage-69 (MDWCPIHMWADCFA) | 0.065 |
| Phage-162 (MNWCPTDLWHECFN) | 0.087 |
| Phage-293 (MDWCPRHLWFECFN) | 0.064 |
| Phage-186 (QDWCPTYLWHHCFN) | 0.101 |
| Phage-357 (MDWCPRLLWHECFN) | 0.071 |
| Phage-62 (MDWCPSYLWNECFF) | 0.065 |
| Phage-316 (MDWCPRSLWNYCFA) | 0.067 |
| Phage-275 (MDWCPRDHWVDCYS) | 0.172 |
| Phage-194 (MDWCPSDMWHECYA) | 0.062 |
| Phage-231 (VPWCLIISGLDCLN) | 0.455 |
